Assay: Cytotoxicity assay (AlamarBlue) in mock infected MT-2 cells
Assay type: cell-based
Conditions: human
Experimental: The present assay was used to screen candidate antiviral compounds by quantification of virus spread and production over several rounds of infection in vitro. MT-2, a HIV-1 permissive human T-cell line, was seeded in microtiter plates and was simultaneously treated with serially diluted compound and inoculated with a HIV-1 NL4-3 viral clone engineered to express Renilla luciferase in place of Nef. Following treatment, the culture was incubated for 96 hours. After the incubation, media was collected and used to estimate relative infectivity on the indicator cell line, TZM-bl. Additionally, viral spread was quantified by measuring luciferase activity via a commercially available luciferase substrate. In parallel, MT-2 cells were seeded and inoculated with mock virus in the presence of serially diluted compound. Compound toxicity was quantified 96 hours after treatment with AlamarBlue.
MT-2 (NIH Aids reagent program 237) cells were grown and maintained in an incubator at 37° C. with 5% CO2 using a basal medium of RPMI-1640 supplemented with 10% FBS. Cells were seeded in 100 μl at 2×10^4 cells/well in white walled 96-well microtiter plates. Candidate compounds were 3-fold serially diluted in the appropriate solvent. Solvent without compound was used as a no drug reference. Cells were inoculated at a multiplicity of 0.027 with an HIV-1 NL4-3 virus stock engineered to express Renilla luciferase in place of Nef. Diluted virus stock was first added to serially diluted compound. Compound and virus were delivered to cells in an equal volume (100 μl) and treated cultures were returned to the incubator for 96 hours. In parallel, plates for cytotoxicity estimates were prepared in the same way except cells were plated in clear walled 96-well microtiter plates and were mock infected.
At 96 hours post treatment, 20 μl AlamarBlue proliferation reagent was added to 200 μl treated and mock infected cultures and incubated for 3 hours at 37° C. with 5% CO2 then read at 545, 590 nm on fluorescence plate reader (Biotek).
For all assays, data was imported into Accelrys Assay Explorer 3.3. In Assay Explorer, % inhibition (antiviral or cytotoxicity) was calculated using the solvent control as a reference by the following equation: 1−(SignalCompound/SignalReference). The % Inhibition and compound concentration data was fitted using the following 4-parameter logistic model (Assay Explorer model 42):
[formula] where X is compound concentration, Y is % inhibition, D is the maximum % Inhibition (constrained to 100%), C is IC50 value or inflection point, B is the hill slope, and A is the minimum % inhibition (constrained to 0%). The IC50 value is reported as the EC50 or CC50 depending on the assay endpoint. EC50 represents the effective concentration at which virus replication is inhibited by 50 percent. CC50 represents the concentration that results in the death of 50 percent of the host cells. The selectivity or therapeutic index (SI or TI), is the ratio of CC50 over EC50 and represents the relative effectiveness in inhibiting viral replication compared to inducing cell death.
Molecule COc1ccccc1/C=C/C1NCCc2cc(OCc3ccccc3)c(OC)cc21 (stereo not shown) [DG, 6-(benzyloxy)-7-methoxy-1-[(E)-2-(2-methoxyphenyl)ethenyl]-1,2,3,4-tetrahydroisoquinoline] has a CC50 at 96 h of 9 µM. COc1cc2c(cc1OCc1ccccc1)CCNC2/C=C/c1cccc2c1OCCC2 (stereo not shown) [CF, 6-(benzyloxy)-1-[(E)-2-(3,4-dihydro-2H-1-benzopyran-8-yl)ethenyl]-7-methoxy-1,2,3,4-tetrahydroisoquinoline] showed a CC50 at 96 h of 9.1 µM. COc1ccc(CCC2NCCc3cc(OC)c(OC)cc32)cc1OC (stereo not shown) [Example A, 1-[2-(3,4-Dimethoxyphenyl)ethyl]-6,7-dimethoxy-1,2,3,4-tetrahydroisoquinoline] gave a CC50 at 96 h greater than 10 µM. Molecule COc1cc2c(cc1OCc1ccccc1)CCNC2/C=C/c1cc(OCC(C)(C)C)c(OC)cc1C (stereo not shown) [BX, 6-(benzyloxy)-1-[(E)-2-[5-(2,2-dimethylpropoxy)-4-methoxy-2-methylphenyl]ethenyl]-7-methoxy-1,2,3,4-tetrahydroisoquinoline] has a CC50 at 96 h of 3.4 µM. COc1cc2c(cc1OCc1ccccc1)CCNC2/C=C/c1ccc(S(C)(=O)=O)cc1 (stereo not shown) [BZ, 6-(benzyloxy)-1-[(E)-2-(4-methanesulfonylphenyl)ethenyl]-7-methoxy-1,2,3,4-tetrahydroisoquinoline] showed a CC50 at 96 h of 1 µM. CCOC(=O)c1ccccc1/C=C/C1NCCc2cc(OCc3ccccc3)c(OC)cc21 (stereo not shown) [ET, ethyl 2-[(E)-2-[6-(benzyloxy)-7-methoxy-1,2,3,4-tetrahydroisoquinolin-1-yl]ethenyl]benzoate] showed a CC50 at 96 h of 9.9 µM. With COc1cc2c(cc1OCc1ccccc1)CCNC2/C=C/c1cccc(-c2ncco2)c1 (stereo not shown) [EC, 6-(benzyloxy)-7-methoxy-1-[(E)-2-[3-(1,3-oxazol-2-yl)phenyl]ethenyl]-1,2,3,4-tetrahydroisoquinoline] the CC50 at 96 h was 7.5 µM. In the case of COc1cc(OC)c(/C=C/C2NCCc3cc(OCc4ccccc4)c(OC)cc32)cc1C (stereo not shown) [EH, 6-(benzyloxy)-1-[(E)-2-(2,4-dimethoxy-5-methylphenyl)ethenyl]-7-methoxy-1,2,3,4-tetrahydroisoquinoline], the CC50 at 96 h is reported as 3.59 µM. Molecule COc1cc(C)c(CCC2NCCc3cc(OCc4ccccc4)c(OC)cc32)cc1OCc1ccccc1 (stereo not shown) [Example Q, 6-benzyloxy-1-[2-(5-benzyloxy-4-methoxy-2-methyl-phenyl)ethyl]-7-methoxy-1,2,3,4-tetrahydroisoquinoline] has a CC50 at 96 h of 5.15 µM. COc1cc2c(cc1OCc1ccccc1)CCNC2/C=C/c1nccs1 (stereo not shown) [DV, 6-(benzyloxy)-7-methoxy-1-[(E)-2-(1,3-thiazol-2-yl)ethenyl]-1,2,3,4-tetrahydroisoquinoline] showed a CC50 at 96 h of 21.8 µM. Molecule COc1ccc(/C=C/C2NCCc3cc(OCc4ccccc4)c(OC)cc32)cc1C (stereo not shown) [EI, 6-(benzyloxy)-7-methoxy-1-[(E)-2-(4-methoxy-3-methylphenyl)ethenyl]-1,2,3,4-tetrahydroisoquinoline] has a CC50 at 96 h of 11.8 µM. In the case of COc1cc(C)c(/C=C/C2c3cc(OC)c(OCc4ccccc4)cc3CCN2C(=O)OC(C)(C)C)cc1OCc1ccccc1 (stereo not shown) [Example Y, tert-butyl 6-benzyloxy-1-[(E)-2-(5-benzyloxy-4-methoxy-2-methyl-phenyl)vinyl]-7-methoxy-3,4-dihydro-1H-isoquinoline-2-carboxylate], the CC50 at 96 h is reported as 28.1 µM. With COc1cc2c(cc1OCc1ccccc1)CCNC2/C=C/c1ccc2occc2c1 (stereo not shown) [BN, 1-[(E)-2-(1-benzofuran-5-yl)ethenyl]-6-(benzyloxy)-7-methoxy-1,2,3,4-tetrahydroisoquinoline] the CC50 at 96 h was 20.7 µM. Work on COc1ccc(/C=C/C2NCCc3cc(OCc4ccccc4)c(OC)cc32)c(C)c1 (stereo not shown) [Example AG, 6-benzyloxy-7-methoxy-1-[(E)-2-(4-methoxy-2-methyl-phenyl)vinyl]-1,2,3,4-tetrahydroisoquinoline] yielded a CC50 at 96 h of 9.83 µM. COc1cc2c(cc1OCc1ccccc1)CCNC2/C=C/c1ccccc1C(F)(F)F (stereo not shown) [DA, 6-(benzyloxy)-7-methoxy-1-[(E)-2-[2-(trifluoromethyl)phenyl]ethenyl]-1,2,3,4-tetrahydroisoquinoline] showed a CC50 at 96 h of 10 µM. COc1cc2c(cc1OCc1ccccc1)CCNC2/C=C/c1cscn1 (stereo not shown) [DR, 6-(benzyloxy)-7-methoxy-1-[(E)-2-(1,3-thiazol-4-yl)ethenyl]-1,2,3,4-tetrahydroisoquinoline] showed a CC50 at 96 h of 25.4 µM. For COc1cc2c(cc1OCc1ccccc1)CCNC2/C=C/c1ccc(OC)c2occc12 (stereo not shown) [Example AN, 6-Benzyloxy-7-methoxy-1-[(E)-2-(7-methoxybenzofuran-4-yl)vinyl]-1,2,3,4-tetrahydroisoquinoline], the CC50 at 96 h was 3.7 µM. For CCCCOc1ccc(/C=C/C2NCCc3cc(OCc4ccccc4)c(OC)cc32)cc1OC (stereo not shown) [BD, 6-(benzyloxy)-1-[(E)-2-(4-butoxy-3-methoxyphenyl)ethenyl]-7-methoxy-1,2,3,4-tetrahydroisoquinoline], the CC50 at 96 h was 3.62 µM. In the case of COc1cc2c(cc1OCc1ccccc1)CCNC2/C=C/c1cccc(C(=O)O)c1 (stereo not shown) [ER, 3-[(E)-2-[6-(benzyloxy)-7-methoxy-1,2,3,4-tetrahydroisoquinolin-1-yl]ethenyl]benzoic acid], the CC50 at 96 h is reported as 10 µM. COc1ccc(/C=C/C2NCCc3cc(OCc4ccccc4)c(OC)cc32)c(F)c1 (stereo not shown) [BR, 6-(benzyloxy)-1-[(E)-2-(2-fluoro-4-methoxyphenyl)ethenyl]-7-methoxy-1,2,3,4-tetrahydroisoquinoline] showed a CC50 at 96 h of 10 µM. For COCCOc1ccccc1/C=C/C1NCCc2cc(OCc3ccccc3)c(OC)cc21 (stereo not shown) [DE, 6-(benzyloxy)-7-methoxy-1-[(E)-2-[2-(2-methoxyethoxy)phenyl]ethenyl]-1,2,3,4-tetrahydroisoquinoline], the CC50 at 96 h was 10 µM. COc1cc2c(cc1OCc1ccccc1)CCNC2/C=C/c1ccc(-n2cncn2)cc1 (stereo not shown) [DT, 6-(benzyloxy)-7-methoxy-1-[(E)-2-[4-(1H-1,2,4-triazol-1-yl)phenyl]ethenyl]-1,2,3,4-tetrahydroisoquinoline] showed a CC50 at 96 h of 7.39 µM. COc1ccc2cc(/C=C/C3NCCc4cc(OCc5ccccc5)c(OC)cc43)ccc2c1 (stereo not shown) [DI, 6-(benzyloxy)-7-methoxy-1-[(E)-2-(6-methoxynaphthalen-2-yl)ethenyl]-1,2,3,4-tetrahydroisoquinoline] gave a CC50 at 96 h of 5.84 µM. In the case of COc1cc2c(cc1OCc1ccccc1)CCNC2/C=C/c1ccc(-n2ccnc2)cc1 (stereo not shown) [DK, 6-(benzyloxy)-1-[(E)-2-[4-(1H-imidazol-1-yl)phenyl]ethenyl]-7-methoxy-1,2,3,4-tetrahydroisoquinoline], the CC50 at 96 h is reported as 9.13 µM. In the case of COc1cc2c(cc1OCc1ccccc1)CCNC2/C=C/c1ccc2c(c1)CCO2 (stereo not shown) [BM, 6-(benzyloxy)-1-[(E)-2-(2,3-dihydro-1-benzofuran-5-yl)ethenyl]-7-methoxy-1,2,3,4-tetrahydroisoquinoline], the CC50 at 96 h is reported as 20.4 µM.

Same assay, conditions: human; mock infected MT-2 cells, 96 hours, AlamarBlue; read-out: CC50
With COc1cc(OC)c(OC)cc1/C=C/C1NCCc2cc(OCc3ccccc3)c(OC)cc21 (stereo not shown) [AQ, 6-(benzyloxy)-7-methoxy-1-[(E)-2-(2,4,5-trimethoxyphenyl)ethenyl]-1,2,3,4-tetrahydroisoquinoline] the CC50 at 96 h was 1.98 µM. With COc1ccc(/C=C/C2NCCc3cc(OCc4ccccc4)c(OC)cc32)cc1Br (stereo not shown) [AR, 6-(benzyloxy)-1-[(E)-2-(3-bromo-4-methoxyphenyl)ethenyl]-7-methoxy-1,2,3,4-tetrahydroisoquinoline] the CC50 at 96 h was 6.2 µM. With COc1cccc(/C=C/C2NCCc3cc(OCc4ccccc4)c(OC)cc32)c1 (stereo not shown) [EJ, 6-(benzyloxy)-7-methoxy-1-[(E)-2-(3-methoxyphenyl)ethenyl]-1,2,3,4-tetrahydroisoquinoline] the CC50 at 96 h was 10 µM.

From US9518022B2, “Anti-HIV compounds” (priority 2014, dated 2016)
